# Source: patent US7662626B2, “Cells and methods for estimation of effects on neurological dysfunction” (Kabushiki Kaisha Toshiba, priority 2005, dated 2010)
# Columns and labels:
# Type in all cases: cell-based, mouse
# [1] = test system: Neuro2a transfected with aryl hydrocarbon receptor-expressing nucleic acid pcDNA4-rAhR; assay: Neurite outgrowth (cell morphology) of cell strains transfected with pcDNA4-rAhR; settings: 10 nM, DF1:1 medium, 1 to 3 weeks; two selected AhR-transfected Neuro2a strains (FIG. 2)
# Experimental: (3) Cells in which neurites outgrow this observed by adding ligand of the aryl hydrocarbon receptor, are selected from the cell strains obtained in (c). Cells into which the receptor-expressing nucleic acid is transfected are cultured in a conventional culture medium such as DF1:1 medium containing 10% fetal bovine serum with or without adding ligand of the aryl hydrocarbon receptor for 1 to 3 weeks. And morphological changes are compared between the two types of the cells described above. The number of the neurite from the cell, the length of the neurite, and the number of the cells in which the neurite is outgrown are compared when the morphology changes of the cell strain are used as indications. It is more preferable that comparison of increase of a proportion of a number of cells with neurite having a twofold length of a diameter of the each cells, to the total cells which are in contacted with a ligand of aryl hydrocarbon receptor. The cells in which the neurite is outgrown by adding ligand of the aryl hydrocarbon receptor are selected, by comparing the cells in which the receptor-expressing nucleic acid is transfected by adding the ligand of the aryl hydrocarbon receptor with the cells in which the receptor-expressing nucleic acid is transfected without adding the ligand of the aryl hydrocarbon receptor. […]
# [2] = test system: aryl hydrocarbon receptor; assay: CYP1A1 gene expression by reverse transcription PCR in selected cell strains; settings: 30 nM, 24 hours, with vs without; both selected cell strains
# Excerpt: (2) Cells functionally expressed the aryl hydrocarbon receptor protein are selected from the cells obtained in (c). A gene known to be able to induce expression of the gene through activation of the aryl hydrocarbon receptor is used as a marker as an indication of the selection. Examples of the gene include genes for CYP1A1, UGT glycosyltransferase 1 family, polypeptide A6 (UGT1A6) or glutathione-S-transferase (GST). The selection procedure includes, for example, culturing the cells to be selected in a conventional culture medium such as DF1:1 medium containing 10% of fetal bovine serum for 1 to 5 days; culturing the cells in a conventional culture medium such as DF1:1 medium containing 10% of fetal bovine serum for 1 week by adding a ligand of aryl hydrocarbon receptor; and extracting RNAs from the cells to detect the expression of the marker gene by a known RNA detection method such as northern hybridization and reverse transcription PCR. Alternatively, the protein translated from the marker gene is detected by a known detection method such as western blotting. The cells confirmed to induce the expression of the marker gene by this confirmation are selected.
# After cultivating these cell strains in DF1:1 suppremented with or without 30 nM of 2,3,7,8-TCDD for 24 hours, total RNAs were extracted from the cells. An RNeasy kit was used for extraction of total RNA. […]
# Neuro2a = assay: CYP1A1 gene expression by reverse transcription PCR in parent Neuro2a; settings: 30 nM, 24 hours; parent Neuro2a (no AhR gene detected)
# Experimental: After cultivating these cell strains in DF1:1 suppremented with or without 30 nM of 2,3,7,8-TCDD for 24 hours, total RNAs were extracted from the cells. An RNeasy kit was used for extraction of total RNA. The extracted RNA was reverse-transcripted using an oligo(dT) primer. Subsequently, expression of CYP1A1 gene was confirmed by 25 cycles of PCR comprising 1 cycle with denaturation of 94° C./30 second, annealing of 55° C./30 seconds and extension of 72° C./30 seconds. CYP1A1 gene is one of genes, of which expression thereof is induced by binding of the aryl hydrocarbon receptor activated by binding of a ligand to XRE (xenobiotic responsive element) on DNAs. A forward primer 5′-CCCACAgCACCACAAgAgATA (SEQ ID NO: 5) and a reverse primer 5′-AAgTAggAggCACAATgTC (SEQ ID NO: 6) were used as primers for PCR. As a result, expression of CYP1A1 gene was increased by adding 2,3,7,8-TCDD in both of two selected cell strains. While the same experiment was performed with respect to Neuro2a, no increase of the amount of expression of CYP1A1 gene was observed.
# [3] = test system: TH gene, Cdc42 gene and tau gene; assay: Marker gene expression (TH, Cdc42, tau) by reverse transcription PCR in selected cell strains; settings: selected two cell strains cultured with vs without 2,3,7,8-TCDD (FIG. 3)
# Experimental: Total RNAs were extracted with an RNeasy kit after culturing the selected two cell strains in DF1:1 medium supplemented with 2,3,7,8-TCDD, and cDNA was synthesized by a reverse transcription reaction. Subsequently, using cDNA synthesized above as a template and ExTaq (manufactured by Takara Bio Inc.), expression of the TH gene was confirmed by 25 cycles of PCR comprising one cycle with denaturation of 94° C./30 second, annealing of 60° C./30 seconds and extension of 72° C./30 seconds. Also, expression of the Cdc42 gene and tau gene was confirmed by 25 cycles of PCR comprising one cycle with denaturation of 94° C./30 second, annealing of 58° C./30 seconds and extension of 72° C./30 seconds. A forward primer 5′-CCACggTgTACTggTTCACT (SEQ ID NO: 7) and a reverse primer 5′-ggCATAgTTCCTgAgCTTgT (SEQ ID NO: 8) were used as primers for the TH gene; a forward primer 5′-gATACTgCAgggCAAgAgg (SEQ ID NO: 9) and a reverse primer 5′-CAggCACCCACTTTTCTTTC (SEQ ID NO: 10) were used as primers for the Cdc42 gene; and a forward primer 5′-TCCggAgAACgAAgCggCTACAgC (SEQ ID NO: 11) and a reverse primer 5′-TgCTgAggTgCCgTggAgATgTgT (SEQ ID NO: 12) were used as primers for the tau gene. As a result, the amounts of expression of the TH gene, Cdc42 gene and tau gene were increased in any of the two selected cell strains cultured with 2,3,7,8-TCDD as compared with the cell strains cultured without 2,3,7,8-TCDD (FIG. 3).
# [4] = test system: tau protein and TH protein; assay: Marker protein expression (tau, TH) by western blotting in selected cell strains; settings: 10 nM, three weeks, with vs without; selected two cell strains (FIG. 4)
# Experimental: After the selected two cell strains were cultured in DF1:1 medium supplemented with 10 nM of 2,3,7,8-TCDD for three weeks, the amounts of expression of the tau protein and TH protein were confirmed by extracting the proteins and by conducting western blotting with a tau protein antibody and TH protein antibody. The amounts of expression of the tau protein and TH protein were increased in any of the selected two cell strains as compared with neurotoxicity responsive cells cultured without adding 2,3,7,8-TCDD (FIG. 4).
smiles,measurement,setting,value
"Clc1cc2c(cc1Cl)Oc1cc(Cl)c(Cl)cc1O2 [2,3,7,8-TCDD, 2,3,7,8-tetrachlorodibenzo-p-dioxin]",neurite outgrowth (morphology of the cell),[1],particularly high proportion of neurite outgrowth
same,expression of CYP1A1 gene,[2],increased
same,amount of expression of CYP1A1 gene,Neuro2a,no increase
same,amount of expression of the Cdc42 gene,[3],increased
same,amount of expression of the TH gene,[3],increased
same,amount of expression of the tau gene,[3],increased
same,amount of expression of the TH protein,[4],increased
same,amount of expression of the tau protein,[4],increased
